The results in this text go back to patent US8633168B2, “Inhibitors of S-adenosyl-L-methionine decarboxylase” (Genzyme Corporation, priority 2007, dated 2014).

Read-outs that look alike come from different tables or passages of the source. A value given as a limit tells only on which side of the number the result lay.

Data set [1] is described as follows: Plasma protein binding (RED), mouse. The class given is in vitro ADME. The method, then:
Rapid Equilibrium Dialysis device (RED) is a 96-well formatted dialysis with disposable inserts and Teflon base design providing short incubation time. The membrane in RED physically separates of bound and free drug. After 4 hr incubation at 37° C., drug concentrations at both plasma (e.g., human, rat, dog, monkey, mouse) and pH 7.4 PBS buffer sides was quantitated by LC/MS/MS and % bound drug in plasma was calculated.

Data set [2] concerns L. donovani (axenic). The experiment in a line: Screening against L. donovani (axenic). In kind it is cell-based. As to conditions: Leishmania donovani; Screening Data.
The target of data set [3] is CYP2C19 (Homo sapiens, UniProt P33261). The experiment in a line: Cytochrome P450 inhibition, CYP2C19. An excerpt:
(§1) This cytochrome P450 high throughput IC50 inhibition assay is utilized for screening potential inhibitors of the 5 major human CYP isozyme catalytic activities (CYP3A4, 2D6, 2C9, 2C19, and 1A2).

Data set [4] has as its target CYP2D6 (Homo sapiens, UniProt P10635). In words: Cytochrome P450 inhibition, CYP2D6.
Excerpt: as §1

Data set [5] relates to Schistosomes lavae. In words: Screening against Schistosomes, larvae. The settings on record: Screening Data. In kind it is cell-based.
Data set [6] has as its target CYP3A4 (Homo sapiens, UniProt P08684). The experiment in a line: Cytochrome P450 inhibition, CYP3A4.
Excerpt: as §1

The nature of data set [7]: Hepatocyte stability, rat. The class given is in vitro ADME. As to conditions: for Hepatocyte stability (CL) rat: Table 2; for CLint scaled: hepatocytes, Example 12 chart. The method, then:
Liver microsomes and hepatocytes represent an in vitro surrogate for assessing the phase I/II metabolic stability of new discovery leads. Following the incubation of the compounds with microsomes or hepatocytes of different species (e.g., human, rat, dog, monkey, mouse), the samples were transferred to 96 well plates for quantitation using LC/MS/MS. The % of compound remaining was measured and used to calculate clearance and % hepatic blood flow.

The test system of data set [8] is T. b. brucei. In words: Cell-based screening against T. b. brucei. As to conditions: for IC50: Screening Data, two values per compound. Details: species or system Trypanosoma brucei brucei. The method, then:
The bloodstream form trypomastigotes of the three strains are maintained according to standard protocols established at STI.
Drug sensitivity assays are performed in sterile 96-well microtiter plates, with or without serial drug dilutions. The highest concentration for the test compounds is 90 μg/ml. Each drug is tested in duplicate. After 72 hours of incubation the plates are inspected microscopically to assure growth of the controls to determine the minimum inhibitory concentration (MIC), i.e., the lowest drug concentration at which no trypanosomes with normal morphology and motility can be seen compared to control wells. Cell viability is measured by Alamar blue staining and IC50 values are calculated.
Active compounds (IC50<0.2 μg/ml) are tested against the Trypanosoma brucei gambiense STIB 930 and the multi-drug resistant T. b. brucei STIB 950 following the same protocol as described above.
This example provides data relating to the biological screening results. MDL 73811 and selected new compounds 1-7 were tested against a variety of cell-based organisms and enzymes and the IC50 measured. In vitro ADME profiles were also obtained. Solubility, permeability, microsomal/hepatocyte stability, cychrome P450 inhibition and plasma protein binding characteristics were probed for each of the compounds. The methodology for these tests are described in previous paragraphs. The results are summarized in the following 2 charts.

[9] abbreviates: plasma, pH 7.4, Example 12 chart, mouse.
Setting [10] is: human, probe fluorometric substrates (not named).
Where [11] appears, read: read-out: CYP IC50 2C19, Example 12 chart.
Setting [12] is: read-out: CYP IC50 2D6, Example 12 chart.
Setting [13] is: read-out: CYP IC50 3A4, Example 12 chart.

Chain of CYP2C19 (P33261 whole entry): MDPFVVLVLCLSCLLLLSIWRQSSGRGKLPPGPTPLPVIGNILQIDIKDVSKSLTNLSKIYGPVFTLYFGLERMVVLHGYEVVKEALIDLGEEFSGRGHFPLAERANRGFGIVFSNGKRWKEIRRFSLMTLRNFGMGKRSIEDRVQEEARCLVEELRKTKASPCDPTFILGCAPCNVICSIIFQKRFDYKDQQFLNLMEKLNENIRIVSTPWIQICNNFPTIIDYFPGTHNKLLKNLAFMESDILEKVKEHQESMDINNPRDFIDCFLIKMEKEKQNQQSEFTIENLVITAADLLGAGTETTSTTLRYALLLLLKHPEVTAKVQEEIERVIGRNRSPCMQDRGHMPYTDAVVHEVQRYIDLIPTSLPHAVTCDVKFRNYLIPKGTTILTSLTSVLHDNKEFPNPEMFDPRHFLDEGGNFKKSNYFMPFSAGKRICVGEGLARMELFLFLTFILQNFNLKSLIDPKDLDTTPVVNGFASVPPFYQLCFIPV
Chain of CYP2D6 (P10635 whole entry): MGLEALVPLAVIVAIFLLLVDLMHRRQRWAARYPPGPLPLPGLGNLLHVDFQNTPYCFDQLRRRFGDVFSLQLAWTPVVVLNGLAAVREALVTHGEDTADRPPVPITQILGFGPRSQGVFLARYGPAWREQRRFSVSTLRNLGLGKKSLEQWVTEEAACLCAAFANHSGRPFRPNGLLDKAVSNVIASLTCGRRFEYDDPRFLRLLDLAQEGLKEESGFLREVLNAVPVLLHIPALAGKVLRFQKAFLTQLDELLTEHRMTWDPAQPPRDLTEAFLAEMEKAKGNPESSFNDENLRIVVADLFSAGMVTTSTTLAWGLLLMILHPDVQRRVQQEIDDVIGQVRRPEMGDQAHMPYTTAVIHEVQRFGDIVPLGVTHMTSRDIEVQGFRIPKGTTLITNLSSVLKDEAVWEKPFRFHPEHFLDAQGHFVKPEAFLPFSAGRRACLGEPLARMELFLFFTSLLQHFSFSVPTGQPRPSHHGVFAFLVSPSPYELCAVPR
Chain of CYP3A4 (P08684 whole entry): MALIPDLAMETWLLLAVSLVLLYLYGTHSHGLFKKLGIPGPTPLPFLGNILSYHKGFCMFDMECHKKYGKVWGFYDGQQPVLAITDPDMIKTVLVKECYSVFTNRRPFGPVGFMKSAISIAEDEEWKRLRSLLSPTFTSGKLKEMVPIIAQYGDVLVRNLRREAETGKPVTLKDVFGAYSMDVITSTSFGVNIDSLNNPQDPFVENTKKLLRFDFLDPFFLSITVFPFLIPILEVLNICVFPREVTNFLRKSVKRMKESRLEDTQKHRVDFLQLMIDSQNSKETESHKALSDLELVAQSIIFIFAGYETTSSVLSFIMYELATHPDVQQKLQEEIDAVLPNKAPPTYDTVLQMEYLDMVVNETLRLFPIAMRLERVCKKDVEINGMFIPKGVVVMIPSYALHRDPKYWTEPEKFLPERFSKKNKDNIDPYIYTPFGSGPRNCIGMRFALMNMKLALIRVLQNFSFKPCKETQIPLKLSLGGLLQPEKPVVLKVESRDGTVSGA

Turning to `CN(C/C=C\CN)C[C@H]1O[C@@H](n2cnc3c(N)ncnc32)[C@H](F)[C@@H]1O` (stereo in doubt) [Compound 1], the “Plasma protein binding (%) mouse” value in data set [1] (Table 2, mouse plasma) is reported as 47.7%. Moreover, in data set [1] (setting [9]), the fraction unbound at 4 hr was 0.523. The concentration for half-maximal inhibition (IC50) in data set [2] is over 85 µM; in data set [3] (setting [10]) it was over 5 µM; in data set [4] (setting [10]), over 5 µM; in data set [5], over 10 µM; in data set [6] (setting [10]), over 5 µM; in data set [8] (Trypanosoma brucei), over 14 µM. Further, in data set [7], the “Hepatocyte stability (CL) rat” value is on record as under 11 mL/min/kg. Also, the CLint scaled in data set [7] was under 3.5 mL/min/kg.

Regarding `Cc1nc2c(N)ncnc2n1[C@@H]1O[C@H](CN(C)C/C=C\CN)[C@@H](O)[C@H]1O` (stereo in doubt) [Compound 4], the “Plasma protein binding (%) mouse” value in data set [1] (Example 12 chart, mouse) is given as 35.7%. In data set [1] (pH 7.4, Table 2, mouse plasma), the fraction unbound at 4 hr is 0.643. Further, the IC50 in data set [2] is over 85 µM; in data set [3], over 5 µM; in data set [3] (setting [11]), over 5 µM; in data set [4], over 5 µM; in data set [4] (setting [12]) it was over 5 µM; in data set [5], over 10 µM. In addition, the IC50 in data set [6] is over 5 µM; in data set [6] (setting [13]) it was over 5 µM; in data set [8] (Trypanosoma brucei), 0.027 µM. Moreover, the “Hepatocyte stability (CL) rat” value in data set [7] is under 11 mL/min/kg. The same compound displayed an intrinsic metabolic clearance (CLint scaled) in data set [7] of under 3.5 mL/min/kg. Moreover, in data set [8] (vs MDL73811), the “potency against T. b. brucei, fold greater than that of MDL73811” value came to 10 fold.

In the case of `CN(C/C=C\CN)C[C@H]1O[C@@H](n2cnc3c(N)ncnc32)[C@@H](F)[C@@H]1O` [Compound 2], the “Plasma protein binding (%) mouse” value in data set [1] (Table 2, mouse plasma) is reported as 37.2%. The fraction unbound at 4 hr in data set [1] (setting [9]) was 0.628. Also, the IC50 is over 85 µM in data set [2]; over 5 µM in data set [3]; over 5 µM in data set [3] (setting [11]); over 5 µM in data set [4]; over 5 µM in data set [4] (setting [12]); over 10 µM in data set [5]. Moreover, the IC50 in data set [6] is over 5 µM; in data set [6] (setting [13]), over 5 µM; in data set [8] (Trypanosoma brucei), over 14 µM. Further, in data set [7], the “Hepatocyte stability (CL) rat” value is reported as under 11 mL/min/kg. This compound also came in with a CLint scaled in data set [7] of under 3.5 mL/min/kg.

Turning to `CN(C/C=C\CN)C[C@H]1O[C@@H](n2cnc3c(N)nc(Cl)nc32)[C@H](O)[C@@H]1O` [Compound 3], the “Plasma protein binding (%) mouse” value in data set [1] (Table 2, mouse plasma) stood at 42.2%. Also, the fraction unbound at 4 hr in data set [1] (setting [9]) is 0.578. Besides, the IC50 in data set [2] was over 85 µM; in data set [3], over 5 µM; in data set [3] (setting [11]) it was over 5 µM; in data set [4] it was over 5 µM; in data set [4] (setting [12]), over 5 µM; in data set [5], over 10 µM. The IC50 in data set [6] was over 5 µM; in data set [6] (setting [13]), over 5 µM; in data set [8], 5.96 µM; in data set [8] (Trypanosoma brucei) it was 8.57 µM. Further, the “Hepatocyte stability (CL) rat” value in data set [7] is recorded as under 11 mL/min/kg. Besides, the CLint scaled in data set [7] is under 3.5 mL/min/kg.

For `CN(C/C=C\CN)CC1OC(n2cnc3c(N)ncnc32)C(O)C1O` (centres unmarked) [MDL-73811, reference compound], the “Plasma protein binding (%) mouse” value in data set [1] (Example 12 chart, mouse) stood at 69.8%. The same compound gave a fraction unbound in data set [1] (pH 7.4, Table 2, mouse plasma) of 0.302. Further, the IC50 in data set [2] was over 85 µM; in data set [3], over 5 µM; in data set [3] (setting [11]) it was over 5 µM; in data set [4], over 5 µM; in data set [4] (setting [12]), over 5 µM; in data set [5], over 10 µM. Moreover, the IC50 in data set [6] was over 5 µM; in data set [6] (human) it was over 5 µM; in data set [8] it was 0.257 µM; in data set [8] (Trypanosoma brucei), 0.171 µM. Moreover, in data set [7], the “Hepatocyte stability (CL) rat” value is given as under 11 mL/min/kg. The CLint scaled in data set [7] is under 3.5 mL/min/kg.

As a reminder, the fraction unbound is free concentration divided by total concentration. A low value points to little free substance. The IC50 is the point on the concentration scale where inhibition reaches its midpoint. As a reminder, the CLint scaled is the rate of metabolic loss divided by the concentration. High values mean faster metabolism, low ones greater metabolic stability.
